Data on nine compounds can be found in ChEMBL document CHEMBL2074227, “Antiestrogens and steroid hormones: substrates of the human P-glycoprotein” (Biochem Pharmacol, 1994).

Sequence of ATP-dependent translocase ABCB1 (P08183 whole entry): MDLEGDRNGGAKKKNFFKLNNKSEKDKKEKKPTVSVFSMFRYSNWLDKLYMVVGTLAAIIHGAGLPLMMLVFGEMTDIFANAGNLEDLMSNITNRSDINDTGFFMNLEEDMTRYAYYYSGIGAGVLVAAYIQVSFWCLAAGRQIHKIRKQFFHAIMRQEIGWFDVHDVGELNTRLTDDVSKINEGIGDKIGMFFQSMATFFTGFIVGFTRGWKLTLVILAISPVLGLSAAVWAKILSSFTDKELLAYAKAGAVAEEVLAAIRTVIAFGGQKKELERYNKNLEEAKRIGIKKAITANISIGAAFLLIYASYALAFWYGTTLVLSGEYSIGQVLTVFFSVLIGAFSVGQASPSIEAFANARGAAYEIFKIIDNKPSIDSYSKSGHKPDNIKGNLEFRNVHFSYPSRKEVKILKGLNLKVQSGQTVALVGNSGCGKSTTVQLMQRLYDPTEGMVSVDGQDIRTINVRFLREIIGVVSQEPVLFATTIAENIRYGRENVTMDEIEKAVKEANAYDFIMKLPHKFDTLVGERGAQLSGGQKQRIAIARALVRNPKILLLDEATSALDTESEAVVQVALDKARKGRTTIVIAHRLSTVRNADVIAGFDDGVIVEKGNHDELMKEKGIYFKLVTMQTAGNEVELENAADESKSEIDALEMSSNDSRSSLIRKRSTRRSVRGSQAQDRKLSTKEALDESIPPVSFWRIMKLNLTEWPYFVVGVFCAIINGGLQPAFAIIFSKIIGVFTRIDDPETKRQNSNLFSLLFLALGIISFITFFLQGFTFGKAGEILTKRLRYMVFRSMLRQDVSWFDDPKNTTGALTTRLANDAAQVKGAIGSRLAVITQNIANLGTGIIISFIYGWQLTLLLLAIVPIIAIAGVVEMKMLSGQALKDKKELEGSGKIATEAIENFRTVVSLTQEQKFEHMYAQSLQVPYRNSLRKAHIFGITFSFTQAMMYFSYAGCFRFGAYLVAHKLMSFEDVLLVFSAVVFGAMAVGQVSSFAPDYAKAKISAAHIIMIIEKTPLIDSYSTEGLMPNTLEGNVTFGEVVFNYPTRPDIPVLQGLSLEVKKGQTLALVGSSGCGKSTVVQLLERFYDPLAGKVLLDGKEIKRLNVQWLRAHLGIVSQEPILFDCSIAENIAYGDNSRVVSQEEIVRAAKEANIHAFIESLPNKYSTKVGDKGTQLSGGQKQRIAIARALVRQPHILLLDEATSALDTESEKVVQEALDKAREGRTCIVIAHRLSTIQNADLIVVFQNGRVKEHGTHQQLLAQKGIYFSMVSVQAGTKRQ

The series addresses ATP-dependent translocase ABCB1 (Homo sapiens, UniProt P08183). Briefly: TP_TRANSPORTER: ATP hydrolysis in MDR1-expressing Sf9 cells. It counts as functional.
For `CCC(=C(c1ccc(O)cc1)c1ccc(OCCN(C)C)cc1)c1ccccc1`, the Activity entry was “substrate [+]”.
Take `CCN(CC)CCOc1ccc(C(=C(Cl)c2ccccc2)c2ccccc2)cc1` [CLOMIPHENE]: the Activity result is “substrate [+]”.
Then `C[C@]12C[C@H](O)[C@H]3[C@@H](CCC4=CC(=O)CC[C@@]43C)[C@@H]1CC[C@@H]2C(=O)CO` [CORTICOSTERONE], with “substrate [+]”; and `CC/C(=C(\c1ccccc1)c1ccc(OCCN)cc1)c1ccccc1` [DESMETHYL TAMOXIFEN], with “substrate [+]”.
Then `CC/C(=C(/CC)c1ccc(O)cc1)c1ccc(O)cc1` [DIETHYLSTILBESTROL], with “substrate [+]”; and `CC/C(=C(/c1ccc(OCCN(C)C)cc1)c1cccc(O)c1)c1ccccc1` [DROLOXIFENE], with “substrate [+]”; and `C[C@]12CC[C@@H]3c4ccc(O)cc4CC[C@H]3[C@@H]1CC[C@@H]2O` [ESTRADIOL], with “substrate [+]”.
Then `COc1ccc2c(c1)CCC(c1ccccc1)=C2c1ccc(OCCN2CCCC2)cc1` [NAFOXIDINE], with “substrate [+]”; and `CN(C)CCOc1ccc(/C(=C(/CCCl)c2ccccc2)c2ccccc2)cc1` [TOREMIFENE], with “substrate [+]”.
